Series [1] in a line: refractive index (Na D-line) (dimensionless). Conditions: 298.15 K; 101.33 kPa; Liquid; Standard Abbe refractometry.
For series [2] the following is noted: 298.15 K; 101.33 kPa; Liquid.

Structures are written as SMILES. Numbers after ± are expanded uncertainties.

This is an account of results in the NIST ThermoML archive (doi:10.1021/je0602521).

By refractive index is commonly meant the speed of light in vacuum divided by its phase velocity in the sample. As to `CCO` [ethanol], in series [1], the refractive index was determined as 1.35941 ± 0.00068.
The mass density is mass per unit of volume. Regarding `CO` [methanol], the mass density in series [2] is listed as 786.46 ± 0.26 kg/m3.
